From patent US8486465B1 (priority 2007, dated 2013) come the findings set out here.

This experiment relates to Human breast cancer MCF-7 cells. The experiment can be described thus: Apoptosis of MCF-7 cells by Propidium Iodide technique measured by flow cytometry. The experiment is classed as cell-based. Conditions: NOE 0. The source says:
Cell Culture. […] Levels of apoptosis (cell death) were then examined using the Propidium Iodide technique as measured by flow cytometry using a FACscan (BD Biosciences, San Jose, Calif.). Forward (FSC) and Side scatter (SSC) were used to gate the cells.
FIGS. 1A, 1C, 1E, and 1G are dot plots which show the populations of cells grown under the particular culture conditions described below, while FIGS. 1B, 1D, 1F, and 1H respectively are the corresponding frequency histograms showing the total population of apoptotic MCF-7 cancer cells for each culture.
FIGS. 2A, 2C, 2E, and 2G are dot plots which show the populations of cells grown under the particular culture conditions described below, while FIGS. […] 2B, 2D, 2F and 2H respectively are the corresponding frequency histograms showing the total population of apoptotic MCF-7 cancer cells for each culture.
(Flow cytometry measures light scatter and fluorescence of single cells or particles in a stream.)

[1] abbreviates: GSH 5 mM alone, MCF-7, 24 hours (Table 1, Example 2).
The mark [2] stands for this setting: GSH 10 mM alone, MCF-7, 24 hours (Table 2, Example 3).

As for `N[C@@H](CCC(=O)N[C@@H](CS)C(=O)NCC(=O)O)C(=O)O` [GSH, Glutathione], under setting [1], the “% cell death” value was found to be 20%, the “% cell death relative to control” value stood at 11%, the “% cell survival” value is 80% and the “% cell survival relative to Control” value turned out to be 98%. Moreover, under setting [2], the “% cell death” value came to 10%, the “% cell death relative to control” value stood at 96%, the “% cell survival” value is 90% and the “% cell survival relative to Control” value was determined as 95%.
